Key:
Meloidogyne incognita [1] = assay: Example A: Meloidogyne incognita test (gall formation on lettuce roots in sand); format: in vivo; settings: nematicidal action by gall formation, 100% = no galls
Text: (§1) • The expected activity for a given combination of two active ingredients can be calculated as follows, according to S. R. Colby (“Calculating Synergistic and Antagonistic Responses of Herbicide Combinations”, Weeds 15, 20-22, 1967): • If • X is the kill rate, expressed as % of the untreated control, when using active ingredient A at an application rate of m g/ha or in a concentration of m ppm, • Y is the kill rate, expressed as % of the untreated control, when using active ingredient B at an application rate of n g/ha or in a concentration of n ppm and • E is the kill rate, expressed as % of the untreated control, when using active ingredients A and B at application rates of m and n g/ha or in a concentration of m and n ppm, • then
(§2) [formula] • If the actual kill rate is greater than the calculated kill rate (E), the action of the combination is superadditive, i.e. a synergistic effect is present.
(§3) Meloidogyne incognita Test
(§4) • Solvent: 125.0 parts by weight of acetone
(§5) To produce an appropriate active ingredient formulation, 1 part by weight of active ingredient is mixed with the stated amount of solvent and the concentrate is diluted to the desired concentration with water.
(§6) Vessels are filled with sand, active ingredient solution, an egg/larvae suspension of the southern root-knot nematode (Meloidogyne incognita) and lettuce seeds. The lettuce seeds germinate and the plants develop. The galls develop on the roots.
(§7) After the desired period of time, the nematicidal action is determined in % by the gall formation. 100% means that no galls were found; 0% means that the number of galls on the treated plants corresponds to the untreated control. The values ascertained are entered into Colby's formula.

Meloidogyne incognita [2] = assay: Example B: Meloidogyne incognita test (gall formation on lettuce roots in sand); format: in vivo; settings: nematicidal action by gall formation, 100% = no galls
Text: as §1, §2, §3, §4, §5, §6, §7

Structure (SMILES)	Effect in % after 14 days (Meloidogyne incognita [1]; 3 ppm) [%]	Effect in % after 14 days (Meloidogyne incognita [1]; 6 ppm) [%]	Effect in % after 14 days (Meloidogyne incognita [1]; 12 ppm) [%]	Effect in % after 14 days (Meloidogyne incognita [1]; 1.2 ppm) [%]	Effect in % after 14 days (Meloidogyne incognita [1]; 2.4 ppm) [%]	Effect in % after 14 days (Meloidogyne incognita [1]; 4.8 ppm) [%]	Effect in % after 14 days (Meloidogyne incognita [2]; 0.4 ppm) [%]	Effect in % after 14 days (Meloidogyne incognita [2]; 0.8 ppm) [%]	Effect in % after 14 days (Meloidogyne incognita [2]; 1.6 ppm) [%]	Effect in % after 14 days (Meloidogyne incognita [2]; 3.2 ppm) [%]	Effect in % after 14 days (Meloidogyne incognita [2]; 6.4 ppm) [%]
O=C(Nc1ccn(-c2c(F)cccc2F)n1)c1ccccc1C(F)(F)F [Compound (B-1)]	0	0	70	–	–	–	–	–	–	–	–
Cc1cc(Cl)cc(C)c1C1=C(O)C2(CCC3(CC2)OCCO3)NC1=O [Compound (I-2)]	–	–	–	0	0	0	0	0	0	–	–
c1ccc(-c2noc(-c3cccs3)n2)cc1 [Tioxazafen (B-2), Tioxazafen]	–	–	–	–	–	–	–	–	0	0	70
